Test results as given in patent US4780452A, “F-substituted-3-β-D-ribofuranosyl-3H-imidazo[4,5-b]pyridines and pharmaceutical compositions thereof” (Burroughs Wellcome Co., priority 1986, dated 1988).

What was measured:
[1] = Acetic Acid Writhing Test (AAWT), mouse; assay type: in vivo; settings: po, read-out: ED50, analgesic activity, AAWT (Mouse)
Excerpt: (§1) Using the procedure described by Koster et al. in Fed. […] 26, Anti-inflammatory Drugs, Ed.

[2] = Acetic Acid Writhing Test (AAWT), rat; assay type: in vivo; settings: po, read-out: ED50, analgesic activity, AAWT (Rat)
Excerpt: as §1

[3] = New Trypsin Hyperalgesic Assay (NTHA); assay type: in vivo; settings: po, 1 h, read-out: ED50, analgesic activity, NTHA (Rat): dose which reduced the average pain score 50% relative to solvent control
Protocol: A sensitive mild analgesic assay is the New Trypsin Hyperalgesic Assay (NTHA). At the start of the assay 250 μg of trypsin is injected in one hindlimb of each rat. Thirty minutes later each drug is given per os. One hour after the drugs are given the sensitivity of each rat to a 3.0 kg force is determined.

[4] = Carrageenin Pleurisy Assay (CPA), acute anti-inflammatory activity; assay type: in vivo, rat; settings: po, read-out: ED50, acute anti-inflammatory activity (CPA): dose required to reduce the 3 hour exudate volume by 50%
Protocol: Following the procedure described by Vinegar et al. in Proc. Soc. Exp. Biol. Med. 151, 5546, (1976), the acute anti-inflammatory activity of the Compound A (defined in Example 16, vide supra) was compared with that of known anti-inflammatory drugs, i.e., aspirin an acetaminophen in the rat. The average 3 hour exudate volume for each drug treated group was determined and the % inhibition relative to a solvent control group calculated, the ED50 being the dose required to reduce the 3 hour exudate volume by 50%.

[5] = Yeast-induced hyperthermia assay, antipyretic activity; assay type: in vivo; settings: po; rat, n exceeds 10
Excerpt: The Yeast-induced hyperthermia assay was used according to the procedure described by Khalili-Varasteh et al. in Arch. Int. Pharmacodyn.

Toxicity (LD50) = settings: rat, in vivo; Charles River CD rats, males and females
[6] = rat, p.o., 250 μg trypsin in one hindlimb, 3.0 kg force one hour after drug, n exceeds 10

Compound | ED50 ([1]; mouse, p.o., n exceeds 10) | ED50 ([2]; rat, p.o., n exceeds 10) | ED50 [3, 6] | ED50 ([4]; rat, p.o., 3 hour exudate volume, n exceeds 10) | ED50 [5] | LD50 (Toxicity (LD50)) | ED50 ([1]; Mus musculus) | ED50 ([2]; Rattus norvegicus) | ED50 ([3]; Rattus norvegicus) | ED50 ([4]; Rattus norvegicus, 3 h)
OC[C@H]1O[C@@H](n2cnc3c(Nc4ccccc4)ccnc32)[C@H](O)[C@@H]1O [Compound A, 7-anilino-3-β-D-ribofuranosyl-3H-imidazo[4,5-b]pyridine] | 0.33 ± 0.038 mg/kg | 0.74 ± 0.093 mg/kg | 0.1 ± 0.03 mg/kg | 0.24 ± 0.063 mg/kg | 0.65 ± 0.06 mg/kg | > 100 mg/kg | – | – | – | –
CC(=O)Nc1ccc(O)cc1 [Acetaminophen] | – | – | 13 ± 1.7 mg/kg | – | 72 ± 8.6 mg/kg | – | – | – | – | –
CC(=O)Oc1ccccc1C(=O)O [Aspirin] | – | – | – | – | 50 ± 8.1 mg/kg | – | 21 ± 3.4 mg/kg | 137 ± 16.9 mg/kg | 14 ± 2.7 mg/kg | 28 ± 3.2 mg/kg
